Series [1] deals with ATP-binding cassette sub-family C member 3 (Rattus norvegicus, UniProt O88563). As to the kind of experiment: TP_TRANSPORTER: inhibition of CDF uptake (CDF: 10 uM, Probenecid: 260 uM) in Mrp3-expressing Sf9 cells. It counts as functional. The following applies: sf9, 260 µM.
In series [2] the target is ATP-binding cassette sub-family C member 2 (Rattus norvegicus, UniProt Q63120). As to the kind of experiment: TP_TRANSPORTER: inhibition of CDF uptake (CDF: 10 uM, Probenecid: 260 uM) in Mrp2-expressing Sf9 cells. It counts as functional. The following applies: sf9, 260 µM.
ATP-binding cassette sub-family C member 2, sequence (Q63120 whole entry): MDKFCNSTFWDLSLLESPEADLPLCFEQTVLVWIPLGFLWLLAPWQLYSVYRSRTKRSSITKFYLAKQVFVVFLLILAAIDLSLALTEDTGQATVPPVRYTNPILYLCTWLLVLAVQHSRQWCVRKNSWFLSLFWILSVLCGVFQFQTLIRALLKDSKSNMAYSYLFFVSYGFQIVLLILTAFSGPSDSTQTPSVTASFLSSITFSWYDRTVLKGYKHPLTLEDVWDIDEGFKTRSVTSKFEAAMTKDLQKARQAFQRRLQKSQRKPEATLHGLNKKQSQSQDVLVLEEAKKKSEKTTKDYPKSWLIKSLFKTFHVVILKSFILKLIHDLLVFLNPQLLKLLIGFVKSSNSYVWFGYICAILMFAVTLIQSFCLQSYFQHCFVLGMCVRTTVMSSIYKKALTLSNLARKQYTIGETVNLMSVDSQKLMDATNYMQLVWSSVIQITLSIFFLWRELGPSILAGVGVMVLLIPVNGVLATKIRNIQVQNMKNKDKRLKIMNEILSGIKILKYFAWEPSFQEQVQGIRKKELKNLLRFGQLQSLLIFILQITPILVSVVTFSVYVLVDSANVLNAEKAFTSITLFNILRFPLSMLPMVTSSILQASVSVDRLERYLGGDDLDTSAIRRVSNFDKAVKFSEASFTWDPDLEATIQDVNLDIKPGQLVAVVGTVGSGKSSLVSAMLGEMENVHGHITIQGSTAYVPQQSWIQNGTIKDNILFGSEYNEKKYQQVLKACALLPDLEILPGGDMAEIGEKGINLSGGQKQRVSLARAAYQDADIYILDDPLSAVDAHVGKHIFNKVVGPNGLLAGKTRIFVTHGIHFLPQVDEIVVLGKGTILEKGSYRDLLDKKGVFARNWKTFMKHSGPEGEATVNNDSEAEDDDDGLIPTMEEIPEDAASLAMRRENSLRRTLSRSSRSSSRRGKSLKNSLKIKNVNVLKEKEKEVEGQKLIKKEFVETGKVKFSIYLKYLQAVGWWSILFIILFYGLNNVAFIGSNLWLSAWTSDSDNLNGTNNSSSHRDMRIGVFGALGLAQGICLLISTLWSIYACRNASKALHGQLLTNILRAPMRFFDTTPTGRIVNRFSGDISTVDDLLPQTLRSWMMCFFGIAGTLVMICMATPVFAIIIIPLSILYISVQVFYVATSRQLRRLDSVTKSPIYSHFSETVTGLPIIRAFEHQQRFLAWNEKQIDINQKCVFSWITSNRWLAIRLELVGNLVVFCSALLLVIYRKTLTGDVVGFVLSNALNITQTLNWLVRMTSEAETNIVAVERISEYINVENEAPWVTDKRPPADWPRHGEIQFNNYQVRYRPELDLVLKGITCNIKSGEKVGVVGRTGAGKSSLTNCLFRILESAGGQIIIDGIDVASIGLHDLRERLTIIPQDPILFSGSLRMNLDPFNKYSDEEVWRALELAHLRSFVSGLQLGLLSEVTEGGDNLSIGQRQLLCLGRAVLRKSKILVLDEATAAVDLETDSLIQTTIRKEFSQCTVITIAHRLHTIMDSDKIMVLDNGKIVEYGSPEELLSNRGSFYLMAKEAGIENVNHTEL

ATP-binding cassette sub-family C member 3, sequence (O88563 whole entry): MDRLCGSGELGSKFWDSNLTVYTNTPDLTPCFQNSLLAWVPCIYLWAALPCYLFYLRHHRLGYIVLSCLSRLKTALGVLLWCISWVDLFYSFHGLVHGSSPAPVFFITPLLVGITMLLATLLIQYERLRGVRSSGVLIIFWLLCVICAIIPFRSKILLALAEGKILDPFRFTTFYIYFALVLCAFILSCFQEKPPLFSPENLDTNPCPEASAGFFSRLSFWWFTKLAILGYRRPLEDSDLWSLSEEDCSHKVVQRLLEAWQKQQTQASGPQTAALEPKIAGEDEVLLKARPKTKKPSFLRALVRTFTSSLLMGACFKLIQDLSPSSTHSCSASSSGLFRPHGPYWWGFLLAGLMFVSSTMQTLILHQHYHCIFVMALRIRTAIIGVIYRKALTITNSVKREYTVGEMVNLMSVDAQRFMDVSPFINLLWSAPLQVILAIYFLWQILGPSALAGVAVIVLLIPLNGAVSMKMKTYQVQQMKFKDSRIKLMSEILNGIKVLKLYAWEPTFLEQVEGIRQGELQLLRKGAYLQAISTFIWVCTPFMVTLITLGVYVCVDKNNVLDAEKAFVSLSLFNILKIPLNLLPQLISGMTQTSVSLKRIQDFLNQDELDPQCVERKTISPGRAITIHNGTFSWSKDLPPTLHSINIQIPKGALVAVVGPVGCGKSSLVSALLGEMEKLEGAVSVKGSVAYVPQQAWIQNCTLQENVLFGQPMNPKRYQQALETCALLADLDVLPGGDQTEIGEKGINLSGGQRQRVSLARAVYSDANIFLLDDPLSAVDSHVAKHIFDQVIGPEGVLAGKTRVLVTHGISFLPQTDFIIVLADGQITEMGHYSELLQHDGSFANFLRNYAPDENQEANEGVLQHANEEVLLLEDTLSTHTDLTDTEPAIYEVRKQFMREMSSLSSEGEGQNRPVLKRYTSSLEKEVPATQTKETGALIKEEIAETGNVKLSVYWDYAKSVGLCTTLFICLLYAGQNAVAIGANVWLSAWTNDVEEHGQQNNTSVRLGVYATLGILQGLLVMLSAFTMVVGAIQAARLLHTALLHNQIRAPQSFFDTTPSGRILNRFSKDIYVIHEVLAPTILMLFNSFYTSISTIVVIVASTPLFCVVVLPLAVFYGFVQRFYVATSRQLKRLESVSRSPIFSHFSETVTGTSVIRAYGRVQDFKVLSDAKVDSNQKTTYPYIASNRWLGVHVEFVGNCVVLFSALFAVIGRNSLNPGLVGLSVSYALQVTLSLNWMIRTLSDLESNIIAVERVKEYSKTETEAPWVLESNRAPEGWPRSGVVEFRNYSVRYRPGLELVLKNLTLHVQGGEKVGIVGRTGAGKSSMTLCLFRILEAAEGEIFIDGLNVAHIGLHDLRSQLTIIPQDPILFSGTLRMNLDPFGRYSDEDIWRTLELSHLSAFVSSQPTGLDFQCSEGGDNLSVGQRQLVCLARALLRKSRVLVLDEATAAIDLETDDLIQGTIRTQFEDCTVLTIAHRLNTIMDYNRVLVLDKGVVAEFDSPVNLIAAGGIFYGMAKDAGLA

As to `CCCN(CCC)S(=O)(=O)c1ccc(C(=O)O)cc1` [PROBENECID], the Activity entry in series [1] is “inhibitor [(at a rough estimate) 35 % of control]”; in series [2], “inhibitor [(at a rough estimate) 40 % of control]”.

(Values after ChEMBL document CHEMBL2074279, “Pharmacokinetics of 5 (and 6)-carboxy-2',7'-dichlorofluorescein and its diacetate promoiety in the liver” (J Pharmacol Exp Ther, 2003).)
